Earlier results, collected in patent US20070293552A1, “ANTIHYPERTENSIVE THERAPY METHOD” (priority 2006, published 2007).

Target: T1, ETA (Homo sapiens, UniProt P25101)
T1 sequence (P25101 21-427): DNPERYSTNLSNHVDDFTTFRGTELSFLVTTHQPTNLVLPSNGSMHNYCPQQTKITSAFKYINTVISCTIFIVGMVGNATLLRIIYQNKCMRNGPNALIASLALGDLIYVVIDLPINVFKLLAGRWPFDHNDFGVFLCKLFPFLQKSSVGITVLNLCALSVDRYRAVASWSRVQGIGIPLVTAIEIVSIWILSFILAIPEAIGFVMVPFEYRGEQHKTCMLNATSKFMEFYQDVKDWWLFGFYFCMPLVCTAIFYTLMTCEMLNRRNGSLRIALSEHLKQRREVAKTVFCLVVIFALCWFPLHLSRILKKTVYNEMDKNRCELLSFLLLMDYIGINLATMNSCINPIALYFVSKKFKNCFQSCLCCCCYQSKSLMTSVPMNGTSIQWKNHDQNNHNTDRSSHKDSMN
Details: selectivity for ETA over ETB; reported by Wu et al. (2004) J. Med. Chem. 47, 1969-1986

Q: With `CC(=O)c1cc(C)cc(C)c1NC(=O)c1sccc1S(=O)(=O)Nc1onc(C)c1C` [TBC3711, N-(2-acetyl-4,6-dimethylphenyl)-3-(3,4-dimethylisoxazol-5-ylsulfamoyl)-thiophene-2-carboxamide] as the compound, how does the ETA/ETB selectivity factor read?
A: 441×10^3
